{"source": "ChEMBL document CHEMBL4265876", "about": "“Natural Products with Heteroatom-Rich Ring Systems” (J Nat Prod, 2017)", "key": {"[1]": {"system": "HeLa S3", "assay": "Cytotoxicity against human HeLaS3 cells", "assay_type": "functional, cell-based"}, "[2]": {"assay": "Antioxidant activity of the compound", "assay_type": "functional"}, "[3]": {"molecular_target": "Sodium-dependent noradrenaline transporter (Homo sapiens) (UniProt P23975)", "sequence (P23975 whole entry)": "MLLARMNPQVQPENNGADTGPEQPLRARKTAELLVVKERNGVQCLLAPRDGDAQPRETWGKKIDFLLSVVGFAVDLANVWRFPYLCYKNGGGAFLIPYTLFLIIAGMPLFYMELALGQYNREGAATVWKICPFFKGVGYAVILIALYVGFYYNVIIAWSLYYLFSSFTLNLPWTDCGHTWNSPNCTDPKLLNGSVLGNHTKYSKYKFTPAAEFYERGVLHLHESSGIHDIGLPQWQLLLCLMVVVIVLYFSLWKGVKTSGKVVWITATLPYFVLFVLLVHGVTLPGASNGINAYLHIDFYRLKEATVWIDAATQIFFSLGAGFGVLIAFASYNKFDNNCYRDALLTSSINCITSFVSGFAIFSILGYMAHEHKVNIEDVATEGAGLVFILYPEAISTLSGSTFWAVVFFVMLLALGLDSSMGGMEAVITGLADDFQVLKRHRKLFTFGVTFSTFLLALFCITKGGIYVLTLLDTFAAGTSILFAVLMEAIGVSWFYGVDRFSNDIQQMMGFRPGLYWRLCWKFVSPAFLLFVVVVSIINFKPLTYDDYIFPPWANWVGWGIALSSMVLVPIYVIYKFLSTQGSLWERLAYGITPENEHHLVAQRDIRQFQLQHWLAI", "assay": "Inhibition of norepinephrine transporter (unknown origin) at 10 uM"}, "[4]": {"molecular_target": "Mu-type opioid receptor (Homo sapiens) (UniProt P35372)", "sequence (P35372 whole entry)": "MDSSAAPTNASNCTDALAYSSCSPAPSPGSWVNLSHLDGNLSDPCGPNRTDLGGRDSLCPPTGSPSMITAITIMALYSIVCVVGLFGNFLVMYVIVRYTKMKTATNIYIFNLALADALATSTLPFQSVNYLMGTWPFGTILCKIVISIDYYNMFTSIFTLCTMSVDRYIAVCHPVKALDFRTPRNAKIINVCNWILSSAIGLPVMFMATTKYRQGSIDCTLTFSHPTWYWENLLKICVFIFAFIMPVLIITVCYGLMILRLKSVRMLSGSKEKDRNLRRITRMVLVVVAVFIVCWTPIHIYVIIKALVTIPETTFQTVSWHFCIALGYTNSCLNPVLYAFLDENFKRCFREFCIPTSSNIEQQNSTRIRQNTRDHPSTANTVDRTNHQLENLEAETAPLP", "assay": "Inhibition of mu opioid receptor (unknown origin) at 10 uM"}, "[5]": {"molecular_target": "Sodium-dependent serotonin transporter (Homo sapiens) (UniProt P31645)", "sequence (P31645 whole entry, looked up)": "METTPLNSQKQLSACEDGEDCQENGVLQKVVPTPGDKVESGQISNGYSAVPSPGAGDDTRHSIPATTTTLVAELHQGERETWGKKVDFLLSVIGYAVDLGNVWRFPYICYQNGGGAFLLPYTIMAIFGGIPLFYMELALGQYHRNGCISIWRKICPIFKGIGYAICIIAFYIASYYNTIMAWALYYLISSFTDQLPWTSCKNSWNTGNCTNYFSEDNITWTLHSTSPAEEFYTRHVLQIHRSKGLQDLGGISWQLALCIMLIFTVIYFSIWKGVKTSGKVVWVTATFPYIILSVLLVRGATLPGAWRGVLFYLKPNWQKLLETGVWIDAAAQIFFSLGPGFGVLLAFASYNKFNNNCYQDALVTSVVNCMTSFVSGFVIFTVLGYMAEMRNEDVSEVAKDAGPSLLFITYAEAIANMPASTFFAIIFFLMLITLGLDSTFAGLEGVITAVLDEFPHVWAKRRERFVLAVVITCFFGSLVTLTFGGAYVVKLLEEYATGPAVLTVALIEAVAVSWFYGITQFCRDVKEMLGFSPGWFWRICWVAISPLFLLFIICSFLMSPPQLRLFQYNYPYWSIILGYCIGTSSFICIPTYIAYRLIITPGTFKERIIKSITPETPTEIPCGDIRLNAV", "assay": "Inhibition of serotonin transporter (unknown origin) at 10 uM"}, "[6]": {"molecular_target": "Sodium-dependent dopamine transporter (Homo sapiens) (UniProt Q01959)", "sequence (Q01959 whole entry)": "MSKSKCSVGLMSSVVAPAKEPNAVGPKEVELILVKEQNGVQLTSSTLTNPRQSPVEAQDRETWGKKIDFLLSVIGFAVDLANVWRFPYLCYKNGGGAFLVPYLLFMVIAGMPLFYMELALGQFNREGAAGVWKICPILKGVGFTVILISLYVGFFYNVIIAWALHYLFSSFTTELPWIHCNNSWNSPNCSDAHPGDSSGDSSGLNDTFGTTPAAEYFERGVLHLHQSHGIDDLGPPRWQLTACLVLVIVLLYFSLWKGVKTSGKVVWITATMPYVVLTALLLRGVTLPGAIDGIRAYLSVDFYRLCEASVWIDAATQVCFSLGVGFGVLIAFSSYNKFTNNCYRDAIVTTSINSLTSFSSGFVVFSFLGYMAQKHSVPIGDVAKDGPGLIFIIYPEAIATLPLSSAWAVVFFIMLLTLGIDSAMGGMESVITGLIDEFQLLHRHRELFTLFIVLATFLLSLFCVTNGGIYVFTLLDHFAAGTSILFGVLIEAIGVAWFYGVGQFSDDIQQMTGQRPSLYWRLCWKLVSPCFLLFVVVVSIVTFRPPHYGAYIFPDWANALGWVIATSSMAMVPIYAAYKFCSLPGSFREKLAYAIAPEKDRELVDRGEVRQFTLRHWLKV", "assay": "Inhibition of dopamine transporter (unknown origin) at 10 uM"}, "[7]": {"system": "KB", "assay": "Growth inhibition of human KB cells", "assay_type": "functional, cell-based"}, "[8]": {"system": "Escherichia coli", "assay": "Antibacterial activity against Escherichia coli", "assay_type": "functional"}, "[9]": {"system": "HCT-15", "assay": "Cytotoxicity against human HCT15 cells", "assay_type": "functional", "conditions": "read-out: ED50 (the source's name)"}, "[10]": {"system": "A549", "assay": "Cytotoxicity against human A549 cells", "assay_type": "functional", "conditions": "read-out: ED50 (the source's name)"}, "[11]": {"system": "SK-OV-3", "assay": "Cytotoxicity against human SKOV3 cells", "assay_type": "functional", "conditions": "read-out: ED50 (the source's name)"}, "[12]": {"system": "SK-MEL-2", "assay": "Cytotoxicity against human SK-MEL-2 cells", "assay_type": "functional", "conditions": "read-out: ED50 (the source's name)"}, "[13]": {"system": "XF498", "assay": "Cytotoxicity against human XF498 cells", "assay_type": "functional", "conditions": "read-out: ED50 (the source's name)"}, "[14]": {"system": "Candida albicans", "assay": "Antifungal activity against Candida albicans YO109", "assay_type": "functional"}, "[15]": {"system": "Trichophyton rubrum", "assay": "Antifungal activity against Trichophyton rubrum", "assay_type": "functional"}, "[16]": {"system": "Candida albicans", "assay": "Antifungal activity against Candida albicans SC5314", "assay_type": "functional"}, "[17]": {"system": "Cryptococcus neoformans", "assay": "Antifungal activity against Cryptococcus neoformans", "assay_type": "functional"}, "[18]": {"system": "Bacillus subtilis", "assay": "[…] activity against Bacillus subtilis assessed as inhibition zone at 120 ug/disk", "assay_type": "functional", "conditions": "read-out: IZ"}, "[19]": {"system": "Mycobacterium tuberculosis", "assay": "Antibacterial activity against Mycobacterium tuberculosis H37Rv", "assay_type": "functional"}, "[20]": {"system": "P388", "assay": "Cytotoxicity against mouse P388 cells", "assay_type": "functional, cell-based"}, "[21]": {"system": "Candida albicans", "assay": "Antifungal activity against Candida albicans assessed as inhibition zone at 120 ug/disk", "assay_type": "functional", "conditions": "read-out: IZ"}}, "data": [{"smiles": "CN1CN2CCCN3CCCC(=N1)C32", "note": "(configuration not stated)", "values": [{"measurement": "IC50", "setting": "[1]", "value": 6.8, "unit": "µg/mL"}]}, {"smiles": "CC[C@H](C)C1=C(O)[N@@+]2([O-])Oc3ccc(-c4c(O)c(O)c(-c5ccc(O)cc5)c(OC(C)=O)c4OC(C)=O)cc3O[C@@]2([C@@H](C)CC)C(=O)N1OC", "values": [{"measurement": "IC50", "setting": "[2]", "value": 29.1, "unit": "µM"}]}, {"smiles": "N=C(N)NCCCCCNc1noc(Cc2c[nH]c3ccccc23)n1", "values": [{"measurement": "inhibition", "setting": "[3]", "value": 45, "unit": "%"}, {"measurement": "inhibition", "setting": "[4]", "value": 97, "unit": "%"}, {"measurement": "inhibition", "setting": "[5]", "value": 16, "unit": "%"}, {"measurement": "inhibition", "setting": "[6]", "value": 96, "unit": "%"}]}, {"smiles": "Nc1ncn([C@@H]2O[C@H](CO)[C@@H](O)[C@H]2O)c(=O)n1", "note": "[AZACITIDINE]", "values": [{"measurement": "IC50", "setting": "[7]", "value": 0.23, "unit": "µg/mL"}, {"measurement": "MIC", "setting": "[8]", "value": 0.01, "unit": "µg/mL"}]}, {"smiles": "CC[C@H](C)C1=C(O)[N@+]2([O-])Oc3ccc(-c4c(O)c(O)c(-c5ccc(O)cc5)c(OC(C)=O)c4OC(C)=O)cc3O[C@@]2([C@@H](C)CC)C(=O)N1OC", "values": [{"measurement": "IC50", "setting": "[2]", "value": 25, "unit": "µM"}]}, {"smiles": "CC(C)CCCCC1=CN=CN2COC(=O)N12", "values": [{"measurement": "EC50", "setting": "[9]", "value": 0.6, "unit": "µg/mL"}, {"measurement": "EC50", "setting": "[10]", "value": 0.62, "unit": "µg/mL"}, {"measurement": "EC50", "setting": "[11]", "value": 0.36, "unit": "µg/mL"}, {"measurement": "EC50", "setting": "[12]", "value": 0.76, "unit": "µg/mL"}, {"measurement": "EC50", "setting": "[13]", "value": 0.7, "unit": "µg/mL"}]}, {"smiles": "CC[C@H]1CC/C(=C2\\C(=O)O[C@H](C)C2=O)O1", "values": [{"measurement": "MIC80", "setting": "[14]", "value": 8, "unit": "µg/mL"}, {"measurement": "MIC80", "setting": "[15]", "value": 64, "unit": "µg/mL"}, {"measurement": "MIC80", "setting": "[16]", "value": 32, "unit": "µg/mL"}, {"measurement": "MIC80", "setting": "[17]", "value": 16, "unit": "µg/mL"}]}, {"smiles": "COc1cc(C2(c3ncc[nH]3)SSSCC2O)ccc1O", "note": "(single isomer, unassigned; (+))", "values": [{"measurement": "zone of inhibition at 120 µg/disc", "setting": "[18]", "value": 4, "unit": "mm"}, {"measurement": "Activity", "setting": "[19]", "value": 10, "unit": "%"}, {"measurement": "IC50", "setting": "[20]", "value": 21.6, "unit": "µM"}, {"measurement": "zone of inhibition at 120 µg/disc", "setting": "[21]", "value": 4, "unit": "mm"}]}]}
